Measurements from PMC9550789, “Identification and biochemical characterization of a novel N-acetylglucosamine kinase in Saccharomyces cerevisiae” (Scientific Reports, 2022).

Assays:
Emi2 = target: T1, Emi2 (Saccharomyces cerevisiae, UniProt Q04409); experiment: phosphorylation of glucose; format: biochemical; conditions: sugar phosphorylation with ATP; details in supplement
T1 sequence (Q04409 2-500): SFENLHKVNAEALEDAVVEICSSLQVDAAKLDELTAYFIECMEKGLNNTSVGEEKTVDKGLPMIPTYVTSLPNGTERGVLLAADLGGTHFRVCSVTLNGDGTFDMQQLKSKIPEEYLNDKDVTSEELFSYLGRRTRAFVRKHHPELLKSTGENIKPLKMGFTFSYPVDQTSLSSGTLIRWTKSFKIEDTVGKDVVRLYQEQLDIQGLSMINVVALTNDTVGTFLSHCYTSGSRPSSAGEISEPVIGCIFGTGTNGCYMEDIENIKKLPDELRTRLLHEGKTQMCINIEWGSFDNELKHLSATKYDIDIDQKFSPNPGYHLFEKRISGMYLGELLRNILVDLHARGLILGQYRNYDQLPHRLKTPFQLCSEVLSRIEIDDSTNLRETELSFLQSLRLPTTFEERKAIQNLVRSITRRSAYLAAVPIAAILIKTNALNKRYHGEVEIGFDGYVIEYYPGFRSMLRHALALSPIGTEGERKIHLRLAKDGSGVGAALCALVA

Glk1 = target: T2, Glk1 (Saccharomyces cerevisiae, UniProt P17709); experiment: phosphorylation of glucose; format: biochemical; conditions: sugar phosphorylation with ATP; details in supplement
T2 sequence (P17709 2-500): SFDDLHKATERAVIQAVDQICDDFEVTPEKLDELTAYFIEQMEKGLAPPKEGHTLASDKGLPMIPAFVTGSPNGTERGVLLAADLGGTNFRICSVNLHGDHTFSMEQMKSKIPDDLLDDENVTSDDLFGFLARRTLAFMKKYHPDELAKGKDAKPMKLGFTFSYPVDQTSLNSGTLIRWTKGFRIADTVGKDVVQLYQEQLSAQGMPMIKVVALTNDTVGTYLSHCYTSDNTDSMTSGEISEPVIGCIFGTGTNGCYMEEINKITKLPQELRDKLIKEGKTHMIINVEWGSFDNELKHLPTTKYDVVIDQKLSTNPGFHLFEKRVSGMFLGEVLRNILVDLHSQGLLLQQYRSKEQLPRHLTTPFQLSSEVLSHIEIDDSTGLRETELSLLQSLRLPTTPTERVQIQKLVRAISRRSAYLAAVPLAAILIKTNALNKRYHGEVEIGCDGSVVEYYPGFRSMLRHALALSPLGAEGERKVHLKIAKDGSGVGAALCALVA

Hxk2 = target: T3, Hxk2 (Saccharomyces cerevisiae, UniProt P04807); experiment: phosphorylation of glucose; format: biochemical; conditions: sugar phosphorylation with ATP; details in supplement
T3 sequence (P04807 2-486): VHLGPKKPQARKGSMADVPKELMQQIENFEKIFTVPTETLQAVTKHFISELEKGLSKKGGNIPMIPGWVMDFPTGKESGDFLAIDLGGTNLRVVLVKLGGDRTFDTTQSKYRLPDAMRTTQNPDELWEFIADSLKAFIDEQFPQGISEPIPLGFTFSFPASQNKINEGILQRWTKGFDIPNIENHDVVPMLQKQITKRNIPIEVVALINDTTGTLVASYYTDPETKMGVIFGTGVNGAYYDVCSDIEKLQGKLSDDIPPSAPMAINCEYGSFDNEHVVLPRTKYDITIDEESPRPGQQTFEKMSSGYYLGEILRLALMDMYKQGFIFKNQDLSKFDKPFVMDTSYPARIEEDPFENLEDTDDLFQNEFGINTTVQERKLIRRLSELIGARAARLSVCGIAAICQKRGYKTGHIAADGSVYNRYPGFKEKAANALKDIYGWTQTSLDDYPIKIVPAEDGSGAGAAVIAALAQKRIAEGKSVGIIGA

Hxk1 = target: T4, Hxk1 (Saccharomyces cerevisiae, UniProt P04806); experiment: phosphorylation of glucose; format: biochemical; conditions: sugar phosphorylation with ATP; details in supplement
T4 sequence (P04806 1-485): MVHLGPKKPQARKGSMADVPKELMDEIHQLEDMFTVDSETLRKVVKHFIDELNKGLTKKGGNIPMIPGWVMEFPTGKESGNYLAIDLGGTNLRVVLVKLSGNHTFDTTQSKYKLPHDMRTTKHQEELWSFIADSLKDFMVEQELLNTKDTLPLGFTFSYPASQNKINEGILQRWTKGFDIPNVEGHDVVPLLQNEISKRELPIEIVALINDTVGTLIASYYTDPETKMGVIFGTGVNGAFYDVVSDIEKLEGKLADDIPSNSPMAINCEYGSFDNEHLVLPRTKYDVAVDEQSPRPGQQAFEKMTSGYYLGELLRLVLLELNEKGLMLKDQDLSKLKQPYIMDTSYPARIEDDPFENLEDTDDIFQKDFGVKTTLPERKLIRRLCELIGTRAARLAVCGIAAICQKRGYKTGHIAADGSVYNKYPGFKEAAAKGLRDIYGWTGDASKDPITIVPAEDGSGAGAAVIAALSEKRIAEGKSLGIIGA

[1] = substrate: Nc1ncnc2c1ncn2[C@@H]1O[C@H](COP(=O)(O)OP(=O)(O)OP(=O)(O)O)[C@@H](O)[C@H]1O; experiment: pyruvate kinase / lactate dehydrogenase coupled assay, ADP formation; format: biochemical, Saccharomyces cerevisiae; conditions: GlcNAc as sugar substrate (concentration not given)

## OC[C@H]1OC(O)[C@H](O)[C@@H](O)[C@@H]1O (stereo partly drawn) [glucose]
Emi2
  phosphorylation of glucose: all these hexokinases clearly exhibited the activity for Glc
Glk1
  phosphorylation of glucose: all these hexokinases clearly exhibited the activity for Glc
Hxk2
  phosphorylation of glucose: all these hexokinases clearly exhibited the activity for Glc
Hxk1
  phosphorylation of glucose: all these hexokinases clearly exhibited the activity for Glc

B1: Ngk1 (YLR446Wp) (Saccharomyces cerevisiae S288C) (protein)
chain: MTIESTLARELESLILPADSIVNVVDQFQEELLSRLQTNTISMLPQCLVPDKRSRWNPEDKILTIDFGGTRLKFAIISLPQIVIEYNDAFELTYNIVDSNFFNQIIYTICTRLAANGYIKKKNESSEASKFFVSVTFSFPLNPEGEVVAMGKGFVMTDTLQGSTVKQLIQSSFHRIISENIEEFFCTMNVCHVINDAIAVSLTSKFICENDSISLIIGTGTNACFEVPYGYLPPFKRDALRETLPSSYNKETLNFKHVLINSEIGFIGKNVIALQPFDIHGAISYEMPLECVTSGKWLPLSLKNILLQYNIIPKNFPVEFNGELVCQLAEDCTNAWFENEHYALICQIARLLIKRAAFYVAAIVQAIDIITGCKNYNFIHIGYVGSFLHNSNFYREQIKYYSSIHIKLQFLNHSNLLGAAIATYLNKSDNQVQ
notes: full-length ORF, 433 residues, about 50 kDa predicted, N-terminal His6-tag (pCold II), E. coli BL21 (DE3), HisTrap purified; tag removal not mentioned
[1]
  Km: 1200 µM
  kcat: 3.4 s⁻¹
